Where two headings read alike, the source gives them in different places.
Assays:
[1] = test system: electric shock convulsions in mice; test: Anti-convulsive activity in relation to electric shock; format: in vivo; details: Mus musculus, oral, treated 1 hour beforehand, 12.5 V, 0.5 second, read-out: Anti-convulsive action Electric shock ED50
Experimental: (§1) The products according to the invention were subjected to pharmacological tests in mice in order to determine their activity on the central nervous system. We shall indicate below the various tests to which the products were subjected.
(§2) In all cases the products were administered orally.
Anti-convulsive activity in relation to electric shock
An alternating current of 12.5 V is applied for 0.5 second by means of corneal electrodes to batches of 12 mice treated 1 hour beforehand with the product to be studied. The untreated mice subjected to this electric shock undergo a convulsion of the tonic type.

[2] = test system: rats; test: Approach-avoidance conflict procedure in Skinner boxes (dissociation of anxiolytic and sedative activities); format: in vivo, male Wistar rats; details: intraperitoneal; for ED50: Rattus norvegicus, ip, 0.5 h, 30 minutes before the test
Experimental: Male Wistar rats are trained in Skinner boxes (Campden) in an approach-avoidance conflict procedure (Davidson and Cook, Psychopharmacologia 1969, 15, 159). The session lasts 30 minutes and consists of a multiple VI 30 sec/FR 3 schedule (sequence: 10 minutes VI+2 minutes FR+10 minutes VI+2 minutes FR+6 minutes VI). During the conflict periods, signalled by a light cue every 3d press delivers simultaneously a pellet and an electric shock. […] Lever presses are authomatically recorded by a microcomputer: non punished responses during the VI schedule and punished responses during the FR periods. A representative benzodiazepine of formula (I) above (R3=ethyl, R4=F; Code No. CM 6912) has been injected by intraperitoneal route 30 minutes before the test.

[3] = test system: central receptor site of the benzodiazepines; test: Affinity for the central benzodiazepine receptor site, displacement of 3H-flunitrazepam in vitro; format: binding; details: mice and rats
Experimental: Studies were performed in mice and rats in order to evaluate the respective affinities of CM 6912 and of its metabolites on the central receptor site of the benzodiazepines.

[4] = test system: mice; test: Toxicity; format: in vivo; details: oral
Experimental: as §1, §2
Finally, for certain products, the LDo in mg/kg (for oral administration) has been provided.

[5] = test system: man; test: Therapeutic evaluation in man; format: in vivo; details: daily dosage of 2 mg
Experimental: For this purpose, a pharmaceutical composition containing 2 mg of CM 6912 is administered once a day.

[6] = test system: equilibration of mice; test: Rotating rod test: equilibration; format: in vivo; details: Mus musculus, oral, 50% of mice fall
Experimental: as §1, §2
3. Rotating rod test: equilibration
The results are expressed as the 50% effective dose (ED50) which is the dose (in mg/kg) for which 50% of the mice fall during the test.

[7] = test system: motility of mice; test: Spontaneous actography; format: in vivo; details: oral
Experimental: as §1, §2
1. Spontaneous actography
The animals are placed in individual cages through which pass two beams which strike two photoelectric cells.
During their movements, the animals (mice) intercept the beams and cause a recording on the impulse counters.
The variations in the motility of the treated animals are expressed in percentages relative to comparison animals; the sign-indicates a reduction (in percent) of the motility of the subjects.

[8] = Drug disposition studies after oral administration; format: in vivo, several animal species and man
Source text: The originality of the mechanism of action of CM 6912 has been determined by the appearance profile of active metabolites after oral administration.

[9] = test system: mice pulling themselves up on a horizontal bar; test: Traction test; format: in vivo; details: Mus musculus, oral, 50% of mice can no longer pull themselves up
Experimental: as §1, §2
This consists of observing whether the animals (mice) are capable of pulling themselves up on a horizontal bar gripped by the front paws.
The results are expressed as the 50% effective dose (ED50), which is the dose (in mg/kg) for which 50% of the mice can no longer pull themselves up.

[10] = test system: mice; test: Anxiolytic activity: 4 plate test; format: in vivo; details: oral, 45 minutes after administration, lowest dose with significant effect
Experimental: as §1, §2
Anxiolytic activity: 4 plate test
The device is a parllelopiped chamber of which the floor consists of 4 metal plates of equal area. The experimenter can create a difference of potential which corresponds to a current of intensity 0.35 mA for a duration of 0.2 second, between each plate. Each time a mouse passes from one plate to the other, it receives an electric shock.
The anxiolytic agents cause an indifference to these electric shock and as a result the treated mice cross from one plate to another more frequently than the comparison mice. 45 minutes after administration of the product to be studied, the mice are placed in the chamber for 1 minute and the number of shocks received is measured and compared with the number of shocks received by the comparison animals. The results are expressed as a percentage increase in the number of shocks received by the treated animals relative to the comparison animals (which amounts to a percentage effect for a given dose), or as a threshold dose (TD) which is the lowest dose which produces a significant effect.

[11] = test system: pentylenetetrazol (cardiazol) convulsions in mice; test: Anti-convulsive activity in relation to cardiazol; format: in vivo; details: Mus musculus, oral, cardiazol 125 mg/kg intraperitoneally, protects 50% of animals, read-out: Anti-convulsive action Cardiazol ED50
Experimental: as §1, §2
Anti-convulsive activity in relation to cardiazol
When administered intraperitoneally at a dose of 125 mg/kg, pentylenetetrazol (or cardiazol) causes the appearance of lethal convulsions in 100% of the mice treated.
The active products administered orally prior to the cardiazol oppose the appearance of the convulsions and possibly allow the test animals to survive.
The results are expressed as the ED50, that is to say as the dose (in mg/kg) which protects 50% of the animals.

[12] = oral, several animal species and man
[13] = dose 0.5 mg/kg, minus sign = reduction

| SMILES | ED50 [1] [mg/kg] | displacement of 3H-flunitrazepam in vitro [3] | Toxicity LD. [4] [mg/kg] | ED50 [6] [mg/kg] | ED50 [9] [mg/kg] | Anxiolysis 4 plates threshold dose (TD) [10] | ED50 [11] [mg/kg] | other results |
| --- | --- | --- | --- | --- | --- | --- | --- | --- |
| CCOC(=O)C1N=C(c2ccccc2F)c2cc(Cl)ccc2NC1=O (stereo not shown) [CM 6912, 7-chloro-3-ethoxycarbonyl-5-(2-fluorophenyl)-2-oxo-2,3-dihydro-1H-benzodiazepine-1,4] | 12 | weak displacers | > 300 | 5 | 10 | 1 | 0.6 | ED50 ([2]; read-out: anxiolytic activity ED50 (increase in punished responding)): 1.66 mg/kg; ED50 ([2]; read-out: sedative activity ED50 (decrease in unpunished responding)): 16 mg/kg; dissociation of the anxiolytic and sedative activities [2]: statistically significant; adverse effect in man [5]: without adverse effect; anxiolytic properties in man [5]: potent anxiolytic properties; Actography, variation in motility relative to comparison animals ([7]; dose 33 mg/kg, minus sign = reduction): -23%; biotransformation [8, 12]: biotransformed into the free acid; stability in the gastro-intestinal tract [8, 12]: stable in the gastro-intestinal tract |
| O=C1Nc2ccc(Cl)cc2C(c2ccccc2F)=NC1O (stereo not shown) [3-hydroxy analog] | – | very potent | – | – | – | – | – | – |
| O=C(O)C1N=C(c2ccccc2F)c2cc(Cl)ccc2NC1=O (stereo not shown) [free acid] | – | weak displacers | – | – | – | – | – | activity of metabolite ([8]; metabolite of CM 6912): inactive metabolite |
| CCOC(=O)C1N=C(c2ccccc2Cl)c2cc(Cl)ccc2NC1=O (stereo not shown) [CM 7101, 7-chloro-3-ethoxycarbonyl-5-(2-chlorophenyl)-2-oxo-2,3-dihydro-1H-benzodiazepine-1,4] | 12 | – | > 300 | 6 | 6 | 0.5 | 0.75 | Actography, variation in motility relative to comparison animals [7, 13]: -58% |
| O=C1CN=C(c2ccccc2F)c2cc(Cl)ccc2N1 [de-carbethoxy analog] | – | very potent | – | – | – | – | – | – |
| CCOC(=O)C1N=C(c2ccccc2)c2cc(Cl)ccc2NC1=O (stereo not shown) [CM 4279, reference compound] | > 500 | – | > 300 | > 100 | 100 | 10 | 9 | Actography, variation in motility relative to comparison animals ([7]; dose 100 mg/kg): none |
| COC(=O)C1N=C(c2ccccc2Cl)c2cc(Cl)ccc2NC1=O (stereo not shown) [compound 7442] | 32 | – | > 300 | 8 | 5 | 0.1 | 0.4 | Actography, variation in motility relative to comparison animals [7, 13]: -57% |

Source: patent publication US4587245A, “Method of treating neuropsychic disturbances by benzodiazepine derivatives and composition therefor” (Sanofi, priority 1976, dated 1986)
